Measurements from BindingDB's records for doi:10.1016/s0960-894x(03)00639-5 (Instituto De Química Médica (Csic), 2003).

What was measured:
[1] = target: Thymidine kinase (Herpes simplex virus 1); assay: Inhibitory concentration on phosphorylation of [methyl-3H]-dTh by HSV-1 Thymidine Kinase
[2] = target: Thymidine kinase 2, mitochondrial (Homo sapiens) (UniProt O00142); assay: Inhibitory concentration on phosphorylation of [methyl-3H]-dTh by human Thymidine Kinase 2
Chain of Thymidine kinase 2, mitochondrial (Homo sapiens) (O00142 whole entry, looked up): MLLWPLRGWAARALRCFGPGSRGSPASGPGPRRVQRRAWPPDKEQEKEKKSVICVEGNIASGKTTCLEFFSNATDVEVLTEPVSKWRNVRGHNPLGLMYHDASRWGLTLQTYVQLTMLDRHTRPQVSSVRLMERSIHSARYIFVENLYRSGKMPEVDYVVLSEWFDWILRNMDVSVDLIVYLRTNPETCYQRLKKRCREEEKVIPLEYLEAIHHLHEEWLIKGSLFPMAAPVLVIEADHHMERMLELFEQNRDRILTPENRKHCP

IC50 [1] | IC50 [2] | Compound
> 500 µM | 57 µM | Cc1cn(C/C=C\CNCc2ccccc2)c(=O)[nH]c1=O [1-(4-Benzylamino-but-2-enyl)-5-methyl-1H-pyrimidine-2,4-dione]
 | 3.5 µM | Cc1cn(C/C=C\CN(Cc2ccccc2)Cc2ccccc2)c(=O)[nH]c1=O [1-(4-Dibenzylamino-but-2-enyl)-5-methyl-1H-pyrimidine-2,4-dione]
72 µM | 28 µM | Cc1cn(C/C=C\CNC(=O)c2cccc(C(F)(F)F)c2)c(=O)[nH]c1=O [N-[4-(5-Methyl-2,4-dioxo-3,4-dihydro-2H-pyrimidin-1-yl)-but-2-enyl]-3-trifluoromethyl-benzamide]
